The text below walks through data of patent US8481749B2, “N-(tetrazol-5-yl)- and N-(triazol-5-yl)arylcarboxamides and their use as herbicides” (Bayer Cropscience AG, priority 2010, dated 2013).

Structures are written as SMILES. Bounds are passed on as bounds.

The subject of this test is Veronica persica. Description: Pre-emergence herbicidal action against harmful plants. In kind it is in vivo. The settings on record: 504 h, application rate 80 g/ha, visual assessment after 3 weeks vs untreated controls (100%=plants have died, 0%=like control), read-out: herbicidal activity in percent against Veronica persica.

For the compound `CCn1nnnc1NC(=O)c1ccc(S(C)(=O)=O)c(OC)c1C` [Compound 5-166], the pest or weed control at 80 g/ha is no less than 80%. To `CCn1nnnc1NC(=O)c1ccc(C#N)c(SC)c1C` [Compound 5-392] belongs no less than 80%. The figure for `CCCc1c(C(=O)Nc2nnnn2CC)ccc(Cl)c1[S+](C)[O-]` (stereo not drawn) [Compound 5-510] is no less than 80%. To `CCn1nnnc1NC(=O)c1ccc(S(C)(=O)=O)c(SC)c1C(F)(F)F` [Compound 5-597] belongs no less than 80%. Consider `CCn1nnnc1NC(=O)c1ccc(C)c(SC)c1Cl` [Compound 5-614], for which the pest or weed control at 80 g/ha was no less than 80%. Turning to `CCn1ncnc1NC(=O)c1ccc(C(F)(F)F)c(S(C)(=O)=O)c1C` [Compound 2-148], the pest or weed control at 80 g/ha is no less than 80%. The figure for `CCn1nnnc1NC(=O)c1ccc(C(F)(F)F)c(S(C)(=O)=O)c1C1CC1` [Compound 5-210] is no less than 80%.

Consider `CCn1nnnc1NC(=O)c1ccc(S(C)(=O)=O)c(OC)c1Cl` [Compound 5-276], for which the pest or weed control at 80 g/ha was no less than 80%. To `CCSc1c(Cl)ccc(C(=O)Nc2nnnn2CC)c1C` [Compound 5-122] belongs no less than 80%.

Consider `CCn1nnnc1NC(=O)c1ccc(S(=O)(=O)CC)c(SC)c1C(F)(F)F` [Compound 5-598], for which the pest or weed control at 80 g/ha is no less than 80%. The figure for `CCn1nnnc1NC(=O)c1ccc(Cl)c(S(=O)(=O)CC)c1C` [Compound 5-124] is no less than 80%; for `C#CCOc1c(S(C)(=O)=O)ccc(C(=O)Nc2nnnn2CC)c1Cl` [Compound 5-676] it is no less than 80%.
